Results from patent US20210198277A1, “AMINE-SUBSTITUTED ARYL OR HETEROARYL COMPOUNDS” (Epizyme, Inc., priority 2016, published 2021).

Target: T1, human EHMT2 913-1193 (Homo sapiens, UniProt Q96KQ7)
T1 construct: recombinant purified human EHMT2 913-1193, Viva; purchased Viva
T1 sequence (Q96KQ7 913-1193): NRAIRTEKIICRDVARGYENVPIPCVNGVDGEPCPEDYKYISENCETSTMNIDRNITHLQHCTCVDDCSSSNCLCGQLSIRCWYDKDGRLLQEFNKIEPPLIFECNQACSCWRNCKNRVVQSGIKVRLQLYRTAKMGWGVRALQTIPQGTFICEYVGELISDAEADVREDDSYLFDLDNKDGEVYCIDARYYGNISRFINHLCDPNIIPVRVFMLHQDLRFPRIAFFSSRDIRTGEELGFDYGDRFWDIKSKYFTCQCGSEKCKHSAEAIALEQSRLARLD
Test: EHMT2 enzyme assay on histone peptide substrate (EHMT2 PEP)
Format: biochemical
Conditions: Table VI; read-out: EHMT2 PEP IC50
How it was run: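 Radiometric methyltransferase assay: 0.031 nM EHMT2 913-1193 preincubated 30 min with compound (10-point 3-fold series, top final 50 μM, 2% DMSO) in 20 mM Bicine pH 7.5, 1 mM TCEP. Biotinylated histone peptide methylated with ^3H-SAM for 60 min at room temperature, quenched with unlabeled SAM, captured on streptavidin Flashplates and counted.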

Row | Structure (SMILES) | IC50 [nM]
1 | COc1cc2c(C3CCOCC3)cc(N(C)C)nc2cc1OCCCN1CCCC1 [Compound 825] | 100 to 1000
2 | CNc1cc(C2CCN(CCC(F)(F)F)CC2)c2cc(OC)c(OCCCN3CCCC3)cc2n1 [Compound 832] | < 100
3 | CNc1cc(C2CCN(CC(F)(F)F)CC2)c2cc(OC)c(OCCCN3CCCC3)cc2n1 [Compound 833] | < 100
4 | COc1cc2c(C3CCN(C(C)=O)CC3)cc(C)nc2cc1OCCCN1CCCC1 [Compound 834] | 100 to 1000
5 | CCS(=O)(=O)N1CCC(c2cc(C)nc3cc(OCCCN4CCCC4)c(OC)cc23)CC1 [Compound 836] | 100 to 1000
6 | COc1cc2c(C3CCN(CC(F)(F)F)CC3)cc(C)nc2cc1OCCCN1CCCC1 [Compound 837] | 100 to 1000
7 | COc1cc2c(C3CCN(CCC(F)(F)F)CC3)cc(C)nc2cc1OCCCN1CCCC1 [Compound 838] | < 100
8 | CNc1cc(C2CCN(CCOC)CC2)c2cc(OC)c(OCCCN3CCCC3)cc2n1 [Compound 839] | < 100
9 | COc1cc2c(C3CCN(CC(F)(F)F)CC3)nc(C)nc2cc1OCCCN1CCCC1 [Compound 841] | > 10000

Continued, values first:

Row | IC50 [nM] | Structure (SMILES)
10 | 100 to 1000 | CNc1cc(C)nc(Nc2ccc(OC)c(C#CC3CCNC3)c2)n1 (centres unmarked) [Compound 845]
11 | < 100 | CNc1cc(C)nc(Nc2ccc(OC)c(C#CC3CCCN3)c2)n1 (centres unmarked) [Compound 846]
12 | 100 to 1000 | CNc1cc(C)nc(Nc2ccc(OC)c(C#CC3CCN(C)C3)c2)n1 (centres unmarked) [Compound 847]
13 | < 100 | CNc1cc(C)nc(Nc2ccc(OC)c(C#CC3CCCN3C)c2)n1 (centres unmarked) [Compound 848]
14 | > 10000 | CNC(=O)c1cc(C)nc(Nc2ccc(OC)c(OCCCN3CCCC3)c2)n1 [Compound 854]
15 | < 100 | CNc1cc(C)c2cc(OC)c(C#CCN3CCCC3)cc2n1 [Compound 859]
16 | > 10000 | CNc1cc(C)nc(Nc2ccc(OC)c(C#CCN3CCN(C)CC3)c2)n1 [Compound 860]
17 | < 100 | COc1cc2c(C3CCN([C@@H]4CCOC4)CC3)cc(C)nc2cc1OCCCN1CCCC1 [Compound 863]
